Common to all, as to assay type: cell-based
Experiment [1] concerns the target T1, Myostatin (Homo sapiens, UniProt O14793).
T1 construct: active myostatin (also called mature myostatin) is a homodimer consisting of two C-terminal growth factor domains; purchased R&D systems 788-G8/CF
T1 sequence (O14793 267-375): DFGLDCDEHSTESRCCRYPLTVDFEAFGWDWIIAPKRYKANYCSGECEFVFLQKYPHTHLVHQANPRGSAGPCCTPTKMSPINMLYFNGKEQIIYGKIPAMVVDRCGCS
The experiment can be described thus: Reporter gene assay for myostatin signaling in HepG2 cell line, Evaluation Procedure (1), myostatin inhibition. The following applies: read-out: IC50 (Luciferase) Myostatin HepG2. The gist of the method: (§1)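 IC50 derived from One-Glo luciferase luminescence after 20–24 h at 37 °C. Peptides titrated 4-fold at 0.006–100 nmol/L against myostatin or 0.12–2000 nmol/L against GDF-11 in HepG2 cells carrying a transfected CAGA12-luciferase reporter, kept in 0.1% BSA EMEM.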

In experiment [2] the test system is Myostatin. Described as above. The following applies: GDF-11 IC50 versus Myostatin IC50. The gist of the method:
as §1

The target of another experiment is T2, GDF-11 (Homo sapiens, UniProt O95390).
T2 construct: purchased R&D systems 1958-GD-G8/CF
T2 sequence (O95390 299-407): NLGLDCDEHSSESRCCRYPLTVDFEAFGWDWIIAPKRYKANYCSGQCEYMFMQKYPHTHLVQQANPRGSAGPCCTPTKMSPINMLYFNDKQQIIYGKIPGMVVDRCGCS
The experiment can be described thus: Reporter gene assay for myostatin signaling in HepG2 cell line, Evaluation Procedure (1), GDF-11 inhibition. The following applies: read-out: IC50 (Luciferase) GDF-11 HepG2. The gist of the method: as §1
For orientation: A reporter such as luciferase makes a cellular process visible.

The source of these data is patent EP4786487A1, “PEPTIDE” (Peptidream Inc, priority 2023, dated 2025).

For orientation: pIC50 means −log10 of the IC50, conventionally taken in molar units.

pIC50: −log10 of the molar value. Like-named read-outs stand apart in the source and are kept apart here. Starred links: 1 amine or outer side, 2 acyl side, 3 side chain; linkers in the order of their positions; H or OH if unused. Positions of bridges follow the written chain, without caps; N, C: chain ends. Non-standard residues stand in square brackets, D forms with d. Residues, ends and D or L forms follow the SMILES beside them. *: point of attachment. X13 = O=C(O)c1ccc(-n2cc(C[C@H](N[*:1])C(=O)[*:2])c3ccccc32)cc1; Phe(3-OCH2COOH) = N[C@@H](Cc1cccc(OCC(=O)O)c1)C(=O)O; Piperidine(4-CH2CH2CONH2) = NC(=O)CCC1CCN(*)CC1; Trp(6-OH) = N[C@@H](Cc1c[nH]c2cc(O)ccc12)C(=O)O; Phe(4-COOH) = N[C@@H](Cc1ccc(C(=O)O)cc1)C(=O)O; Piperazinyl(4-CH2COOH) = O=C(O)CN1CCN(*)CC1; Gly(decyl) = CCCCCCCCCC[C@H](N)C(=O)O; Gly(N(CH2)3COOH) = O=C(O)CCCNCC(=O)O; Gly(octyl) = CCCCCCCC[C@H](N)C(=O)O; X1 = CCCCCCC[C@H](N[*:1])C(=O)[*:2]; Gly(N-(CH2)3OMe) = COCCCNCC(=O)O; NMeF = CN[C@@H](Cc1ccccc1)C(=O)O; NMeE = CN[C@@H](CCC(=O)O)C(=O)O; NMeA = CN[C@@H](C)C(=O)O; NEtG = CCNCC(=O)O; Sar = CNCC(=O)O

In the case of `CCCCCCCCCC[C@@H]1NC(=O)[C@H](Cc2ccccc2)N(C)C(=O)[C@H](CCCNC(=N)N)NC(=O)[C@H](Cc2ccc(C(=O)O)cc2)NC(=O)[C@H](Cc2cccc(OCC(=O)O)c2)NC(=O)[C@H]2CCCN2C(=O)[C@H]([C@@H](C)CC)NC(=O)[C@H](Cc2ccccc2)N(C)C(=O)[C@H](Cc2ccc(O)cc2)NC(=O)[C@H](Cc2c[nH]c3ccccc23)NC(=O)[C@H](C)NC(=O)[C@H](C)NC(=O)CSC[C@H](C(=O)N2CCC(CCC(N)=O)CC2)NC(=O)[C@H](Cc2ccccc2)N(C)C(=O)[C@H](CCC(=O)O)N(C)C1=O` [Myostatin_99_v344] ({CH2CO}-AAWY[NMeF]I[dP][Phe(3-OCH2COOH)][Phe(4-COOH)]R[NMeF][Gly(decyl)][NMeE][NMeF][dC]-{Piperidine(4-CH2CH2CONH2)}; thioether N-15), the pIC50 on Myostatin [1] (Method C: Myostatin 1.5 ng/mL) is 10.10; at GDF-11 (Method C: GDF-11 1 ng/mL), 7.21. The molecule further returned a Selectivity with Myostatin [2] (Method C) of 812.6.

`CCCCCCCCCC[C@@H]1NC(=O)[C@H](Cc2ccccc2)N(C)C(=O)[C@H](CCCNC(=N)N)NC(=O)[C@H](Cc2ccc(C(=O)O)cc2)NC(=O)[C@H](Cc2cccc(OCC(=O)O)c2)NC(=O)CN(C)C(=O)[C@H]([C@@H](C)CC)NC(=O)[C@H](Cc2ccccc2)N(C)C(=O)[C@H](Cc2ccc(O)cc2)NC(=O)[C@H](Cc2c[nH]c3ccccc23)NC(=O)[C@H](C)NC(=O)[C@H](C)NC(=O)CSC[C@H](C(=O)N2CCC(CCC(N)=O)CC2)NC(=O)[C@H](Cc2ccccc2)N(C)C(=O)[C@H](CCC(=O)O)N(C)C1=O` [Myostatin_99_v346] ({CH2CO}-AAWY[NMeF]I[Sar][Phe(3-OCH2COOH)][Phe(4-COOH)]R[NMeF][Gly(decyl)][NMeE][NMeF][dC]-{Piperidine(4-CH2CH2CONH2)}; thioether N-15): the pIC50 on Myostatin [1] (Method C: Myostatin 1.5 ng/mL) is 10.05; at GDF-11 (Method C: GDF-11 1 ng/mL), 7.98. For the same molecule, in the experiment on Myostatin [2] (Method C), the Selectivity is 116.0.

In the case of `CCCCCCC[C@@H]1NC(=O)[C@H](Cc2ccccc2)N(C)C(=O)[C@H](CCCNC(=N)N)NC(=O)[C@H](Cc2ccc(C(=O)O)cc2)NC(=O)[C@H](Cc2cccc(OCC(=O)O)c2)NC(=O)[C@H](C)N(C)C(=O)[C@H]([C@@H](C)CC)NC(=O)[C@H](Cc2ccccc2)N(C)C(=O)[C@H](Cc2ccc(O)cc2)NC(=O)[C@H](Cc2cn(-c3ccc(C(=O)O)cc3)c3ccccc23)NC(=O)[C@H](C)NC(=O)CN(CCCC(=O)O)C(=O)CSC[C@H](C(=O)O)NC(=O)[C@H](Cc2ccccc2)N(C)C(=O)[C@H](C)N(C)C1=O` [Myostatin_99_v372] ({CH2CO}-[Gly(N(CH2)3COOH)]A[X13]Y[NMeF]I[NMeA][Phe(3-OCH2COOH)][Phe(4-COOH)]R[NMeF][X1][NMeA][NMeF][dC]-OH; thioether N-15), the pIC50 at Myostatin [1] (Method D: Myostatin 1.5 ng/mL) was 10.05; at GDF-11 (Method D: GDF-11 1.5 ng/mL) it was 8.15. In the experiment on Myostatin [2] (Method D), this molecule came in with a Selectivity of 76.611.

On to `CCCCCCCCCC[C@@H]1NC(=O)[C@H](Cc2ccccc2)N(C)C(=O)[C@H](CCCNC(=N)N)NC(=O)[C@H](Cc2ccc(C(=O)O)cc2)NC(=O)[C@H](Cc2cccc(OCC(=O)O)c2)NC(=O)[C@H]2CCCN2C(=O)[C@H]([C@@H](C)CC)NC(=O)[C@H](Cc2ccccc2)N(C)C(=O)[C@H](Cc2ccc(O)cc2)NC(=O)[C@H](Cc2c[nH]c3cc(O)ccc23)NC(=O)[C@H](C)NC(=O)[C@H](C)NC(=O)CSC[C@H](C(=O)N2CCC(CCC(N)=O)CC2)NC(=O)[C@H](Cc2ccccc2)N(C)C(=O)[C@H](CCC(=O)O)N(C)C1=O` [Myostatin_99_v382] ({CH2CO}-AA[Trp(6-OH)]Y[NMeF]I[dP][Phe(3-OCH2COOH)][Phe(4-COOH)]R[NMeF][Gly(decyl)][NMeE][NMeF][dC]-{Piperidine(4-CH2CH2CONH2)}; thioether N-15), for which the pIC50 at Myostatin [1] (Method D: Myostatin 1.5 ng/mL) was 10.40; at GDF-11 (Method D: GDF-11 1.5 ng/mL), 7.53. For the same molecule, in the experiment on Myostatin [2] (Method D), the Selectivity worked out at 711.775.

For the molecule `CCCCCCCCCC[C@@H]1NC(=O)[C@H](Cc2ccccc2)N(C)C(=O)[C@H](CCCNC(=N)N)NC(=O)[C@H](Cc2ccc(C(=O)O)cc2)NC(=O)[C@H](Cc2cccc(OCC(=O)O)c2)NC(=O)CN(CC)C(=O)[C@H]([C@@H](C)CC)NC(=O)[C@H](Cc2ccccc2)N(C)C(=O)[C@H](Cc2ccc(O)cc2)NC(=O)[C@H](Cc2c[nH]c3cc(O)ccc23)NC(=O)[C@H](C)NC(=O)[C@H](C)NC(=O)CSC[C@H](C(=O)N2CCC(CCC(N)=O)CC2)NC(=O)[C@H](Cc2ccccc2)N(C)C(=O)[C@H](CCC(=O)O)N(C)C1=O` [Myostatin_99_v383] ({CH2CO}-AA[Trp(6-OH)]Y[NMeF]I[NEtG][Phe(3-OCH2COOH)][Phe(4-COOH)]R[NMeF][Gly(decyl)][NMeE][NMeF][dC]-{Piperidine(4-CH2CH2CONH2)}; thioether N-15), the values for the pIC50 on Myostatin [1] (Method D: Myostatin 1.5 ng/mL) and on GDF-11 (Method D: GDF-11 1.5 ng/mL) were 9.74 and 7.39, respectively. Also, the Selectivity with Myostatin [2] (Method D) was 220.797.

As to `CCCCCCCCCC[C@@H]1NC(=O)[C@H](Cc2ccccc2)N(C)C(=O)[C@H](CCCNC(=N)N)NC(=O)[C@H](Cc2ccc(C(=O)O)cc2)NC(=O)[C@H](Cc2cccc(OCC(=O)O)c2)NC(=O)[C@H]2CCCN2C(=O)[C@H]([C@@H](C)CC)NC(=O)[C@H](Cc2ccccc2)N(C)C(=O)[C@H](Cc2ccc(O)cc2)NC(=O)[C@H](Cc2c[nH]c3cc(O)ccc23)NC(=O)[C@H](C)NC(=O)[C@H](C)NC(=O)CSC[C@H](C(=O)N2CCN(CC(=O)O)CC2)NC(=O)[C@H](Cc2ccccc2)N(C)C(=O)[C@H](CCC(=O)O)N(C)C1=O` [Myostatin_99_v384] ({CH2CO}-AA[Trp(6-OH)]Y[NMeF]I[dP][Phe(3-OCH2COOH)][Phe(4-COOH)]R[NMeF][Gly(decyl)][NMeE][NMeF][dC]-{Piperazinyl(4-CH2COOH)}; thioether N-15), the pIC50 on Myostatin [1] (Method D: Myostatin 1.5 ng/mL) was 10.40; on GDF-11 (Method D: GDF-11 1.5 ng/mL), 7.48. The molecule further displayed a Selectivity with Myostatin [2] (Method D) of 805.658.

On to `CCCCCCCCCC[C@@H]1NC(=O)[C@H](Cc2ccccc2)N(C)C(=O)[C@H](CCCNC(=N)N)NC(=O)[C@H](Cc2ccc(C(=O)O)cc2)NC(=O)[C@H](Cc2cccc(OCC(=O)O)c2)NC(=O)CN(CC)C(=O)[C@H]([C@@H](C)CC)NC(=O)[C@H](Cc2ccccc2)N(C)C(=O)[C@H](Cc2ccc(O)cc2)NC(=O)[C@H](Cc2c[nH]c3cc(O)ccc23)NC(=O)[C@H](C)NC(=O)[C@H](C)NC(=O)CSC[C@H](C(=O)N2CCN(CC(=O)O)CC2)NC(=O)[C@H](Cc2ccccc2)N(C)C(=O)[C@H](CCC(=O)O)N(C)C1=O` [Myostatin_99_v385] ({CH2CO}-AA[Trp(6-OH)]Y[NMeF]I[NEtG][Phe(3-OCH2COOH)][Phe(4-COOH)]R[NMeF][Gly(decyl)][NMeE][NMeF][dC]-{Piperazinyl(4-CH2COOH)}; thioether N-15), for which the pIC50 is 9.77 on Myostatin [1] (Method D: Myostatin 1.5 ng/mL) and 7.37 at GDF-11 (Method D: GDF-11 1.5 ng/mL). For the same molecule, the Selectivity in the experiment on Myostatin [2] (Method D) was found to be 251.449.

Turning to `CCCCCCCC[C@@H]1NC(=O)[C@H](Cc2ccccc2)N(C)C(=O)[C@H](CCCNC(=N)N)NC(=O)[C@H](Cc2ccc(OC)cc2)NC(=O)[C@H](Cc2cccc(OCC(=O)O)c2)NC(=O)CN(C)C(=O)[C@H]([C@@H](C)CC)NC(=O)[C@H](Cc2ccccc2)N(C)C(=O)[C@H](Cc2ccc(O)cc2)NC(=O)[C@H](Cc2c[nH]c3cc(O)ccc23)NC(=O)[C@H](C)NC(=O)CN(CCCOC)C(=O)CSC[C@H](C(N)=O)NC(=O)[C@H](Cc2ccccc2)N(C)C(=O)[C@H](C)N(C)C1=O` [Myostatin_99_v418] ({CH2CO}-[Gly(N-(CH2)3OMe)]A[Trp(6-OH)]Y[NMeF]I[Sar][Phe(3-OCH2COOH)]Y(Me)R[NMeF][Gly(octyl)][NMeA][NMeF][dC]-NH2; thioether N-15), the pIC50 at Myostatin [1] (Method D: Myostatin 1.5 ng/mL) was 9.66; on GDF-11 (Method D: GDF-11 1.5 ng/mL), 7.53. For the same molecule, the Selectivity in the experiment with Myostatin [2] (Method D) is on record as 136.2.
